Reference: patent US10933052B2, “Compositions and methods for the treatment of eye disorders” (Cellix Bio Private Limited, priority 2017, dated 2021)

Assay: Ocular pharmacokinetic study of CLX-156 formulation, topical administration in each eye
Type: in vivo, male New Zealand white rabbits
Conditions: rabbit, topical 50 μL in each eye
Protocol: A pharmacokinetics study was conducted on male New Zealand white rabbits to evaluate the ocular pharmacokinetics of CLX-156 (Pilocarpine-(R)-Lipoate) formulation. Animals were topically administered with 50 μL of CLX-156 in each eye, and the aqueous humour and blood samples were collected followed by sacrifice of the animals for collection of lens, cornea and iris region at a pre-determined time.
The aqueous humour and tissue concentration of Pilocarpine and (R)-Lipoic acid were measured at 0.5 h, 1 h, 2 h, 4 h and 8 h in 3 animals/time point/group (as provided in Table 2 and Table 3 hereinbelow). Further, (R)-Lipoic acid concentration was measured in the lens region, and Pilocarpine concentration was measured in iris region of each of the treated animals (as provided in Table 2 and Table 3). All the samples were analyzed using LCMS-MS by a fit for purpose method.

[1] = analyte (R)-Lipoic acid, aqueous humour
[2] = analyte (R)-Lipoic acid, lens region
[3] = analyte Pilocarpine, aqueous humour
[4] = analyte Pilocarpine, iris region

## 5-(((3R,4S)-4-ethyl-5-oxotetrahydro furan-3-yl)methyl)-1-methyl-1H-imidazol-1-ium (R)-5-(1,2-dithiolan-3-yl)pentanoate [CLX-156]
[1]
  AUClast, (R)-Lipoic acid in aqueous humour: 17271 ng·h/mL
  Cmax, concentration of (R)-Lipoic acid in aqueous humour: 21067 ng/mL
  Tmax, (R)-Lipoic acid in aqueous humour: 30 min
[2]
  AUClast, (R)-Lipoic acid in lens region: 0.364 µg·h/g
  Tmax, (R)-Lipoic acid in lens region: 30 min
[3]
  AUClast, Pilocarpine in aqueous humour: 6359 ng·h/mL
  Cmax, concentration of Pilocarpine in aqueous humour: 6480 ng/mL
  Tmax, Pilocarpine in aqueous humour: 30 min
  time up to which pilocarpine was detectable in aqueous humour: up to 4 h
[4]
  AUClast, Pilocarpine in iris region: 1.491 µg·h/g
  Tmax, Pilocarpine in iris region: 30 min
  time up to which pilocarpine was detectable in iris region: up to 2 h
